Measurements published in patent US5849737A, “Compositions and methods for treating pain” (priority 1995, dated 1998).
Entries after “also recorded” stand apart in the source; their conditions may differ. Where two headings read alike, the source gives them in different places.

Columns and labels:
[1] = tested on: tactile allodynia (paw withdrawal thresholds); assay: Tactile allodynia (50% paw withdrawal threshold, von Frey) after intravenous drug, L5/L6 spinal nerve ligated rats; type: in vivo, Male Harlan Sprague-Dawley rats
Text: For intravascular access, external jugular catheters were fashioned from PE-50 tubing and inserted into an external jugular vein under halothane/oxygen anesthesia. Arterial catheters were also fashioned from PE-50 with a small bouton 1 cm from the intravascular end for suture securing; they were inserted into a carotid artery, taking care to spare the surrounding nerves. All catheters were flushed with heparinized saline (10 U/ml) and tunneled subcutaneously to emerge at the posterior base of the neck, and capped when not in use. […] Rats were placed in a plastic cage with an open wire mesh bottom and allowed to accommodate for approximately fifteen minutes. A series of 8 von Frey filaments with logarithmically incremental stiffness (0.41, 0.70, 1.20, 2.00, 3.63, 5.50, 8.50, and 15.10 g) (Stoelting, Wood Dale, Ill.) was used to determine the 50% threshold for paw withdrawal to light mechanical stimuli (PWT). In brief, von Frey hairs were sequentially applied using an up-and-down paradigm to the left mid-plantar hindpaw with sufficient force to cause slight filament buckling. Positive responses were noted if the paw was sharply withdrawn. […] Otherwise, PWT were calculated by noting the stimulus level at which the first change in behavior occurred, collecting four additional responses to the continued up-and-down oscillation of stimulus presentation around the response threshold, and interpolating the 50% response threshold. […] The following equation was used to compute %MPE: [formula] Plasma drug levels and PWT were correlated using linear regression. Serially measured PWT and %MPE were compared using repeated measures ANOVA.

[2] = tested on: tactile allodynia (paw withdrawal thresholds); assay: Tactile allodynia (50% paw withdrawal threshold, von Frey) after intrathecal drug, L5/L6 spinal nerve ligated rats; type: in vivo, Male Harlan Sprague-Dawley rats; conditions: IT; lidocaine 500 μg, MEGX 500 μg, 3-OH L 58 μg
Experimental: (§1) Male Harlan Sprague-Dawley rats were used (100-200 g). Rats were housed 2-3 to a cage with corn cob bedding and Purina rat chow and water ad libitum, in a standard facility with a 12 h/ 12 h day/night cycle. After surgical procedures involving chronic indwelling catheter insertion, animals were housed singly to prevent catheter damage.
Rats were allowed to recover 5-7 days before further testing or surgeries.
The catheters were 9 cm in intrathecal length and terminated near the lumbar enlargement. The rostral 3 cm of catheter was tunneled under the skin to externalize between the ears. Rats with neurologic deficits were discarded.
(§2) Monoethylglycinexylidide (MEGX) was dissolved in physiologic saline; 3-hydroxylidocaine (3-OH L) was dissolved in DMSO for intravenous administration.
Intravenous drugs were delivered to awake, unrestrained rats by slow infusion using a syringe pump (Harvard apparatus 22). Intrathecal drugs were delivered to awake, briefly restrained rats in a volume of 10 μl, followed by 10 μl of vehicle flush, using a calibrated tubing extension with a 30-gauge adapter fitting the implanted intrathecal catheter, attached to a geared Hamilton 100 μl glass syringe. IT drug delivery was monitored by observing the advancement of a small air bubble down the tubing.
Rats were placed in a plastic cage with an open wire mesh bottom and allowed to accommodate for approximately fifteen minutes. […] In brief, von Frey hairs were sequentially applied using an up-and-down paradigm to the left mid-plantar hindpaw with sufficient force to cause slight filament buckling. Positive responses were noted if the paw was sharply withdrawn. […] Otherwise, PWT were calculated by noting the stimulus level at which the first change in behavior occurred, collecting four additional responses to the continued up-and-down oscillation of stimulus presentation around the response threshold, and interpolating the 50% response threshold. […] The following equation was used to compute %MPE: [formula]
(§3) Plasma drug levels and PWT were correlated using linear regression. Serially measured PWT and %MPE were compared using repeated measures ANOVA.

[3] = tested on: P45ONF(human) (P-450 PB-1(rat)(IIIA4) enzyme); conditions: lidocaine metabolite formation; cited from earlier work
[4] = Toxicity and plasma bupivacaine levels on intravenous infusion (GC assay); type: in vivo, Male Harlan Sprague-Dawley rats
Text: For intravascular access, external jugular catheters were fashioned from PE-50 tubing and inserted into an external jugular vein under halothane/oxygen anesthesia. Arterial catheters were also fashioned from PE-50 with a small bouton 1 cm from the intravascular end for suture securing; they were inserted into a carotid artery, taking care to spare the surrounding nerves. All catheters were flushed with heparinized saline (10 U/ml) and tunneled subcutaneously to emerge at the posterior base of the neck, and capped when not in use.
For bupivacaine assays, samples were obtained by withdrawing and discarding approximately 0.3 cc of blood from arterial cannulae, and then withdrawing samples of approximately 0.5 cc volume. These samples were centrifuged and the plasma supernatant was frozen at -20° C. until analysis. […]
Bupivacaine was quantitated by capillary GC with nitrogen-phosphorus detection [Bjork M et al., Journal of Chromatography 533:229-234 (1990)]. […] Split injections (1.5:1) were performed with a Hewlett Packard 7673A automatic sampler, and the chromatograms were recorded and analyzed with H-P Chemstation (MSDOS) software. […]
as §3

motor function = assay: Motor and behavioral effects after intrathecal administration
Experimental: as §1
To induce neuropathy, rats were anesthetized with halothane/oxygen, and the left L5/L6 spinal nerves were exposed via a dorsal midline incision and ligated tightly with 6-0 silk suture according to the reported method [Kim S H et al., Pain 50:355-363 (1992)]. Rats were allowed to recover 5-7 days before further testing or surgeries.
Intrathecal PE-10 catheters were implanted under halothane/oxygen anesthesia [Yaksh T L et al., Physiol Behav 17:1031-1036 (1976)]. The catheters were 9 cm in intrathecal length and terminated near the lumbar enlargement. The rostral 3 cm of catheter was tunneled under the skin to externalize between the ears. Rats with neurologic deficits were discarded.
as §2
Intravenous drugs were delivered to awake, unrestrained rats by slow infusion using a syringe pump (Harvard apparatus 22). […] IT drug delivery was monitored by observing the advancement of a small air bubble down the tubing.

[5] = tested on: tactile allodynia (paw withdrawal thresholds); assay: Mechanical allodynia after single i.p. dose in SD rats (left L5/L6 spinal nerve ligation); type: in vivo
[6] = tested on: tactile allodynia (paw withdrawal thresholds); assay: Mechanical allodynia after single i.p. dose in DA rats (left L5/L6 spinal nerve ligation); type: in vivo; conditions: for effect on tactile allodynia, DA rats: single i.p. dose, lidocaine 60 mg/kg, 3-OHL 15 mg/kg (P<0.002)
[7] = tested on: tactile allodynia (paw withdrawal thresholds); conditions: IV systemic lidocaine, cited from earlier work
[8] = tested on: tactile allodynia (paw withdrawal thresholds); conditions: after termination of motor block [Chaplan et al. (1993)]; cited from earlier work
[9] = tested on: acutely injured peripheral terminals; conditions: in vitro, protein-free system; cited from earlier work
neuromata = conditions: intravenous, whole animals; cited from earlier work
dorsal root ganglion = conditions: intravenous, whole animals; cited from earlier work
[10] = tested on: sural nerve evoked after discharges; conditions: IV, 1 mg/kg; cited from earlier work
[11] = tested on: polysynaptic C-fiber evoked flexor responses; conditions: IV, 1-5 mg/kg, cited from earlier work
[12] = tested on: wide dynamic range neurons; conditions: IV, 3-4 mg/kg, rat; cited from earlier work
[13] = tested on: painful diabetic neuropathy; conditions: cited from earlier work; for clinical effect in painful diabetic neuropathy: lidocaine intravenous, mexiletine oral
[14] = tested on: peripheral nerve injury pain; conditions: lidocaine intravenous; mexiletine oral; cited from earlier work
[15] = tested on: centrally organized nociceptive flexion response; conditions: painful diabetic neuropathy; cited from earlier work
[16] = DA rats; some species of rats; cited from earlier work
neuropathic pain states = conditions: orally available lidocaine congeners; systemically administered local anesthetics; cited from earlier work
trigeminal neuralgia = conditions: oral; cited from earlier work

## CCNCC(=O)Nc1c(C)cccc1C [MEGX, Monoethylglycinexylidide]
[1]; 20 mg/kg, infused over 60 minutes
  allodynia suppression by IV MEGX: completely devoid of anti-allodynia activity by the intravenous route; also recorded: no effect whatsoever
[1]; MEGX 20 mg/kg IV infused over 60 minutes, baseline 1.7±0.6 g
  PWT post infusion: 1.96 ± 0.4 g
[2]
  effect on allodynia thresholds after IT delivery: not MEGX, suppressed allodynia; also recorded: no effect on PWT at this limiting dose
[3]
  enzyme producing the metabolite MEGX: produced by the P45ONF(human) (P-450 PB-1(rat)(IIIA4) enzyme

## CCCCN1CCCCC1C(=O)Nc1c(C)cccc1C (centres unmarked) [bupivacaine]
[1]; IV infusion, up to plasma concentrations which caused evident toxicity, 15 samples from 4 rats, P=0.11, linear regression
  effect of intravenous infusion on allodynia: inactive against allodynia; also recorded: no effect on allodynia
[1]; IV, 4 rats, 15 samples, plasma levels up to toxic range (FIG. 1)
  correlation of plasma bupivacaine levels with %MPE (allodynia suppression): lack of correlation
[4]; IV infusion
  toxicity on intravenous infusion: ataxia and lethargy; also recorded: Higher doses resulted in seizure
[4]; IV, N=4, unit not given
  mean plasma level at higher doses that resulted in seizure: 7.4±0.7

## CCN(CC)CC(=O)Nc1c(C)cccc1C [lidocaine]
[2]
  effect on allodynia thresholds after IT delivery: no effect on allodynia was seen
Motor function; 500 μg
  duration of motor dysfunction after IT delivery: approximately 10 minutes
Motor function; lidocaine 500 μg, MEGX 500 μg, 3-OH L 58 μg
  motor effects after IT delivery: acute onset of hindquarter flaccidity
[5]; lidocaine 60 mg/kg i.p. single dose, N=6, strain difference P<0.002
  duration of tactile allodynia alleviation, SD rats: more than 16 days
[5]; single i.p. dose, lidocaine 60 mg/kg, 3-OHL 15 mg/kg (P<0.05)
  effect on tactile allodynia, SD rats: sustained effect on tactile allodynia in SD rats; also recorded: persistent effects of lidocaine against allodynia
[6]; lidocaine 60 mg/kg i.p.
  time of transient effect, DA rats: 30 min
[6]
  effect on tactile allodynia, DA rats: not effective in this regard in DA rats; also recorded: no sustained effect of lidocaine in DA rats
[6]; listed as Lidocaine
  effect on tactile allodynia, DA rats: no sustained effect whatsoever
[7]; listed as Lidocaine
  effect on allodynia, intravenous route (earlier reports): effective against allodynia by the intravenous
[7]
  effect on allodynia, intravenous route (earlier reports): long lasting effect by the IV route
[8]
  anti-allodynic effect, IT / regional route (earlier report): no anti-allodynic effect after termination of motor block
[9]
  ED50, suppression of spontaneous activity: 5.7 mg/L
neuromata
  ED50 for discharge suppression in neuromata: 6 mg/kg
Dorsal root ganglion
  ED50 for discharge suppression, dorsal root ganglion: 1 mg/kg
[10]
  suppression of sural nerve evoked after discharges: suppression of polysynaptic (spinal cord) sural nerve evoked after discharges
[11]
  conduction block at the peripheral terminal: without evidence of conduction block at the peripheral terminal
[11]; mustard oil and noxious heat
  effect on polysynaptic C-fiber evoked flexor responses: suppresses polysynaptic C-fiber evoked flexor responses to mustard oil and noxious heat
[12]
  effect on wide dynamic range neuron activity: selectively suppresses the increased wide dynamic range neuronal activity seen ipsilateral to chronic peripheral nerve injury; also recorded: suppresses noxious-evoked activity in wide dynamic range neurons in the rat
[13]; intravenous lidocaine, painful diabetic neuropathy
  thermal thresholds: without alteration in thermal thresholds
[13]
  clinical effect in painful diabetic neuropathy: reduced pain scores for several days
[14]
  clinical effect in peripheral nerve injury pain: decreases in spontaneous pain, albeit of short duration
[15]
  nociceptive flexion response: suppression of the centrally organized nociceptive flexion response
[16]
  3-hydroxylation / production of 3-OH L in rats: lack of 3-hydroxylation in this strain

## Cc1cccc(C)c1OCC(C)N (centres unmarked) [mexiletine]
[13]
  clinical effect in painful diabetic neuropathy: analgesic effects
[14]
  clinical effect in peripheral nerve injury pain: analgesic effects
Neuropathic pain states
  clinical efficacy in neuropathic pain states: far from universally effective
  tolerability in neuropathic pain states: in many cases are poorly tolerated due to side effects, including some which may be life-threatening

## Cc1cccc(C)c1NC(=O)C(C)N (centres unmarked) [tocainide]
Trigeminal neuralgia
  clinical effect in trigeminal neuralgia: analgesic effects
Neuropathic pain states
  clinical efficacy in neuropathic pain states: far from universally effective
  tolerability in neuropathic pain states: in many cases are poorly tolerated due to side effects, including some which may be life-threatening
